Non-standard residues stand in square brackets, D forms with d. Residues, ends and D or L forms follow the SMILES beside them. ξ: configuration not given here. ξBip(2'-Et-4'-OMe) = CCc1cc(OC)ccc1-c1ccc(CC(N)C(=O)O)cc1; ξNva(5-(3,5-Me2-Ph)) = Cc1cc(C)cc(CCCC(N)C(=O)O)c1; Aib = CC(C)(N)C(=O)O

In experiment [1] the test system is C57BL/6J mice (mild hyperglycemic). In words: In vivo glucose reduction, acute single dose 120-min time-course, i.p. route. The arrangement: species or system mouse; unit not given here. The following applies: male C57BL/6J mice.
For experiment [2] the test system is unchanged. Nature of the experiment: In vivo glucose reduction, acute single dose 120-min time-course, oral route. On the set-up: species or system mouse; unit not given here. The conditions noted are these: male C57BL/6J mice, 2 μM/kg oral. Here is the method:
Acute single dose 120-min time-course experiments were carried out in male C57BL/6J or db/db mice, age 8-12 weeks, bred in-house. Animals were housed in groups of 6 animals per cage, for a week, in order to habituate them to vivarium conditions (25±4° C., 60-65% relative humidity, 12:12 h light:dark cycle, with lights on at 7.30 am). All the animal experiments were carried out according to the internationally valid guidelines following approval by the ‘Zydus Research Center animal ethical committee’.
Two days prior to the study, the animals were randomised and divided into 5 groups (n=6), based upon their fed glucose levels. On the day of experiment, food was withdrawn from all the cages, water was given ad-libitum and were kept for overnight fasting. Vehicle (normal saline)/test/standard compounds were administered intraperitoneally (i.p.) or orally, on a body weight basis. Soon after the 0 min. blood collection from each animal, the subsequent blood collections were done at 30, 60 and 120 or up to 240 min., via retro-orbital route, under light ether anesthesia (Chen, D., et al., Diabetes Obesity Metabolism, 2005, 7, 307. Kim, J. G. et al., Diabetes, 2003, 52, 751).
Blood samples were centrifuged and the separated serum was immediately subjected for the glucose estimation. Serum for insulin estimation was stored at −70° C. until used for the insulin estimation. The glucose estimation was carried out with DPEC-GOD/POD method (Ranbaxy Fine Chemicals Limited, Diagnostic division, India), using Spectramax-190, in 96-microwell plate reader (Molecular devices Corporation, Sunnyvale, Calif.). […] The AUC and BCAUC obtained from graphs were analyzed for one way ANOVA, followed by Dunnett's post test, using Graph Pad prism software. Furthermore, the insulin estimation was carried out using rat/mouse insulin ELISA kit (Linco research, Missouri USA). Changes in the blood glucose levels, at 0, 30, 60 and 120 min, with selected peptidomimetics are shown in Table 7 (via ip route of administration) and Table 8 (via oral route of administration) respectively.

For `CCc1cc(OC)ccc1-c1ccc(CC(NC(=O)[C@H](CC(=O)O)NC(=O)[C@H](CO)NC(=O)[C@@H](NC(=O)[C@H](Cc2ccccc2)NC(=O)[C@@H](NC(=O)CNC(=O)[C@H](CCC(N)=O)NC(=O)C(C)(C)NC(=O)[C@@H](N)Cc2c[nH]cn2)[C@@H](C)O)[C@@H](C)O)C(=O)NC(CCCc2cc(C)cc(C)c2)C(N)=O)cc1` (stereo partly drawn) [Seq. ID. 18] (H-H[Aib]QGTFTSD[ξBip(2'-Et-4'-OMe)][ξNva(5-(3,5-Me2-Ph))]-NH2), the blood glucose levels in experiment [1] (30 nM/kg i.p., 0 min) stood at 183 ± 3.6; in experiment [1] (30 nM/kg i.p., 30 min) it was 118 ± 3.3; in experiment [1] (30 nM/kg i.p., 60 min), 116 ± 3.2; in experiment [1] (30 nM/kg i.p., 120 min), 117 ± 1.9; in experiment [2] (0 min), 185 ± 2.3; in experiment [2] (30 min) it was 115 ± 3.8. Also, the values for the blood glucose levels in experiment [2] (60 min) and in experiment [2] (120 min) were 113 ± 4.9 and 109 ± 2.2, respectively.

As to `CCc1cc(OC)ccc1-c1ccc(CC(CNC(CCCc2ccccc2)C(N)=O)NC(=O)[C@H](CC(=O)O)NC(=O)[C@H](CO)NC(=O)[C@@H](NC(=O)C(C)(Cc2ccccc2F)NC(=O)[C@@H](NC(=O)CNC(=O)C(CCC#N)NC(=O)C(C)(C)NC(=O)[C@@H](N)Cc2c[nH]cn2)[C@H](C)O)[C@H](C)O)cc1` (single isomer, unassigned) [Seq. ID. 190], the blood glucose levels in experiment [1] (10 nM/kg i.p., 0 min) came out at 182 ± 2.1; in experiment [1] (10 nM/kg i.p., 30 min) it was 121 ± 2.9; in experiment [1] (10 nM/kg i.p., 60 min), 130 ± 3.1; in experiment [1] (10 nM/kg i.p., 120 min), 138 ± 2.4; in experiment [2] (0 min), 183 ± 2.1; in experiment [2] (30 min) it was 118 ± 3.4. Moreover, the blood glucose levels came to 113 ± 4.6 in experiment [2] (60 min) and 111 ± 2.8 in experiment [2] (120 min).

As for `CCc1cc(OC)ccc1-c1ccc(CC(NC(=O)[C@H](CC(=O)O)NC(=O)[C@H](CO)NC(=O)[C@@H](NC(=O)C(C)(Cc2ccccc2F)NC(=O)[C@@H](NC(=O)CNC(=O)C(CCC#N)NC(=O)C(C)(C)NC(=O)[C@@H](N)Cc2c[nH]cn2)[C@@H](C)O)[C@H](C)O)C(=O)NC(CCCc2ccccc2F)C(N)=O)cc1` (single isomer, unassigned) [Seq. ID. 120], the blood glucose levels worked out at 182 ± 5.1 in experiment [1] (30 nM/kg i.p., 0 min); 118 ± 2.1 in experiment [1] (30 nM/kg i.p., 30 min); 116 ± 2.2 in experiment [1] (30 nM/kg i.p., 60 min); 118 ± 2.4 in experiment [1] (30 nM/kg i.p., 120 min); 184 ± 2.5 in experiment [2] (0 min); 115 ± 1.6 in experiment [2] (30 min). Besides, the blood glucose levels in experiment [2] (60 min) is on record as 113 ± 3.2; in experiment [2] (120 min), 110 ± 2.4.

For `CCc1cc(OC)ccc1-c1ccc(CC(NC(=O)[C@H](CC(=O)O)NC(=O)[C@H](CO)NC(=O)[C@@H](NC(=O)[C@H](Cc2ccccc2)NC(=O)[C@@H](NC(=O)CNC(=O)C(CCC#N)NC(=O)C(C)(C)NC(=O)[C@@H](N)Cc2c[nH]cn2)[C@@H](C)O)[C@@H](C)O)C(=O)NC(CCCc2ccc(Cl)cc2C)C(N)=O)cc1` (single isomer, unassigned) [Seq. ID. 32], the blood glucose levels in experiment [1] (20 nM/kg i.p., 0 min) is recorded as 182 ± 3.3; in experiment [1] (20 nM/kg i.p., 30 min), 120 ± 3.6; in experiment [1] (20 nM/kg i.p., 60 min) it was 127 ± 3.4; in experiment [1] (20 nM/kg i.p., 120 min), 145 ± 2.1; in experiment [2] (0 min), 181 ± 2.5; in experiment [2] (30 min) it was 117 ± 3.3. The values for the blood glucose levels in experiment [2] (60 min) and in experiment [2] (120 min) were 112 ± 4.0 and 108 ± 2.9, respectively.

For the compound `CCc1cc(OC)ccc1-c1ccc(CC(NC(=O)[C@H](CC(=O)O)NC(=O)[C@H](CO)NC(=O)[C@@H](NC(=O)[C@H](Cc2ccccc2)NC(=O)[C@@H](NC(=O)CNC(=O)C(CCC#N)NC(=O)C(C)(C)NC(=O)[C@@H](N)Cc2c[nH]cn2)[C@@H](C)O)[C@@H](C)O)C(=O)NC(CCCc2ccccc2F)C(N)=O)cc1` (single isomer, unassigned) [Seq. ID. 77], the blood glucose levels was 183 ± 4.9 in experiment [1] (20 nM/kg i.p., 0 min); 120 ± 2.8 in experiment [1] (20 nM/kg i.p., 30 min); 129 ± 3.0 in experiment [1] (20 nM/kg i.p., 60 min); 139 ± 2.0 in experiment [1] (20 nM/kg i.p., 120 min); 183 ± 2.1 in experiment [2] (0 min); 118 ± 3.4 in experiment [2] (30 min). For the same compound, the blood glucose levels came out at 113 ± 4.6 in experiment [2] (60 min) and 111 ± 2.8 in experiment [2] (120 min).

Regarding `CCc1cc(OC)ccc1-c1ccc(CC(NC(=O)[C@H](CC(=O)O)NC(=O)[C@H](CO)NC(=O)[C@@H](NC(=O)[C@H](Cc2ccccc2)NC(=O)[C@@H](NC(=O)CNC(=O)C(CCC#N)NC(=O)C(C)(C)NC(=O)[C@@H](N)Cc2c[nH]cn2)[C@@H](C)O)[C@@H](C)O)C(=O)NC(CCCc2ccccc2)C(N)=O)cc1` (single isomer, unassigned) [Seq. ID. 29], the blood glucose levels in experiment [1] (30 nM/kg i.p., 0 min) was 180 ± 1.2; in experiment [1] (30 nM/kg i.p., 30 min), 116 ± 3.2; in experiment [1] (30 nM/kg i.p., 60 min), 116 ± 3.1; in experiment [1] (30 nM/kg i.p., 120 min) it was 118 ± 1.8; in experiment [2] (0 min), 184 ± 2.5; in experiment [2] (30 min), 118 ± 3.6. The blood glucose levels in experiment [2] (60 min) is on record as 113 ± 4.2; in experiment [2] (120 min), 110 ± 2.4.
